Source: PMC2693498 (Retrovirology, 2009)
Where “and” joins values, the source holds several entries; their conditions need not be identical. Equal values may be shown once. Read-outs that look alike come from different tables or passages of the source.

Tests used:
HIV-1 strain xxLAI = assay: microbe, parasite or virus in culture; type: cell-based; details: Human immunodeficiency virus 1, MT2
Experimental: The infected cells were incubated for 5 days at 37°C in 5% CO2. Antiviral activity was measured by determining the HIV-1 cytopathic effect by using the vital dye XTT (2,3-bis(2-methoxy-4-nitro-5-sulphophenyl)-2H-tetrazolium-5-carboxanilide) based colorimetric assay [61].
For the median-effect analysis, the compounds were combined at a 1:1 ratio based on their EC50. Six to eight concentrations of each single drug, two-drug combinations, and three-drug combinations were assayed in at least three independent experiments with quadruplicate wells for each experiment. The triple drug combination of TFV+FTC+EFV was studied by the median-effect analysis only. […] For the MacSynergy analysis, combinations of TFV+FTC, TFV+EFV, and FTC+EFV were tested in a checkerboard fashion in 96-well plates with the starting concentration for each compound fixed at three-fold to four-fold above the EC50 value. For the isobologram analysis, combinations of TFV+FTC, TFV+EFV, and FTC+EFV were tested in a checkerboard fashion with the starting concentration for each compound fixed at three-fold to four-fold above the EC50 value.
The degrees of synergy and antagonism were determined using CalcuSyn software (version 2.0, Biosoft, Cambridge, UK) which is based on median-effect principle by Chou and Talalay [62]. […] The IC50 value is calculated from the y-intercept (-m * log IC50), where m is the slope of the curve. […]
The MacSynergy II program (version 1.0, Ann Arbor, MI) calculates a theoretical additive value for each drug combination based on the values generated by the drugs alone using the Bliss Independence model [42]. […] A synergy volume is calculated by adding all of the positive values for each drug combination. […]
In our cell culture study, the score of synergy/antagonism was calculated from a set of 5 replicate parallel measurements and more than 3 sets of such experiments were conducted to test the reproducibility of the results. […]
Fractional inhibitory concentrations are calculated by dividing the EC50 of drug 1 with a fixed overlay of drug 2 by the EC50 of drug 1 alone (the x-coordinate).

[1] = in vivo; cited from earlier work
HIV-1 RT = target: T1, HIV-1 RT (Human immunodeficiency virus type 1 group M subtype B, UniProt P04585); assay: HIV-1 RT enzymatic (combination) inhibition assay, steady state, activated calf thymus DNA; type: biochemical
T1 construct: Wild-type HIV-1 RT p66/p51 heterodimers; 6-His (N); made in house

[2] = target: T2, HIV-1 RT and ddNTP-terminated DNA primer/template (Human immunodeficiency virus type 1 group M subtype B, UniProt P04585); assay: DEC formation assay (gel shift); type: binding
T2 construct: Wild-type HIV-1 RT p66/p51 heterodimers; 6-His (N); made in house
Text: The dead-end complex (DEC) refers to a salt-stable complex formed by HIV-1 RT/ddNMP-terminated DNA primer-template bound to the next dNTP (or ddNTP) that is resistant to being competed apart with excess template. When DEC forms, HIV-1 RT and the DNA primer-template are "trapped" in a state where the forward reaction (polymerization), backward reaction (terminal ddNMP-excision), or enzyme-DNA dissociation cannot occur. We investigated the DEC formation using TFV-terminated DNA/RT/FTC-TP and FTC-MP-terminated DNA/RT/TFV-DP to test the hypothesis that the incoming NRTI might act as the next nucleotide to the chain-terminated primer and form a DEC, thus stabilizing the pre-existing chain-termination. […] For these studies, formation of DEC was determined by three kinetic constants including the dissociation constant (Kd), the maximum percentage of DNA primer-template forming a tight binding RT-DNA complex (Bmax), and the ratio of Bmax/Kd which reflects the efficiency of DEC formation. Furthermore, two sets of DNA primer/templates ([…] and D26/D50) were used to address whether the observation was sequence-dependent.
DNA primers D19, D25, and D26 were 5'-end labeled with T4 polynucleotide kinase (New England Biolabs, Ipswich, MA) and [γ-^32P]ATP as previously described. […] The annealed primer/templates were analyzed by non-denaturing polyacrylamide gel (4–20% TBE) electrophoresis to ensure that the proper annealing had taken place.
The ability of HIV-1 RT to form a stable complex with NRTI-terminated primer/template in the presence of dNTP, ddNTP or NNRTI was assessed as previously described with modification. Two sets of primer/templates were tested using D19/D36A (D19/D36C) and D25/D50 (D26/D50). Labeled primer/template was chain-terminated by incubating a mixture containing 50 mM Tris-HCl (pH 7.8), 60 mM KCl, 5 mM MgCl2, 5 mM DTT, 300 μg/mL bovine serum albumin, 4.2 (v/v) % glycerol, 5 nM [5'-^32P]-labeled primer/template, 0.5 μM of ddATP or TFV-DP (for D19/D36A or D25/D50) or 0.5 μM of ddCTP or FTC-TP (for D19/D36C or D26/D50), and 200 nM HIV-1 RT for 5 min at 37°C and then placed on ice. […] Free dNTP, ddNTP, or EFV was added into the mixture and the mixture was incubated for 15 min at 25°C. At the end of the incubation, the mixture was placed on ice and mixed with 100 mM KCl and 1 A260 unit/mL (for D19/D36A and D19/D36C) or 5 A260 unit/mL (for D25/D50 and D26/D50) poly(rA).poly(dT)12–18. […] The gel was exposed to a storage phosphor screen and DEC formation was quantified using GE Storm 820 PhosphorImager and ImageQuant TL software (GE Healthcare, Piscataway, NJ).
The DEC formation was analyzed by plotting the fraction of the primer/template detected as a function of dNTP, ddNTP, or EFV concentration. […] Data were fitted by nonlinear regression to simple ligand binding equation: y = (Bmax × [ligand])/(Kd + [ligand]) using SigmaPlot 9.0 (Systat Software, Inc., San Jose, CA), where the ligand is the free dNTP, ddNTP, or EFV concentration, and y corresponds to the % of primer/template in DEC complex. The kinetic constants Kd represents the apparent dissociation constant of a ligand and Bmax is the maximum % of DEC complex formation.

[3] = human, in vivo; cited from earlier work
[4] = target: T2, HIV-1 RT and ddNTP-terminated DNA primer/template; design: method as in PMID 9153415, PMID 17517852; details: TFV-terminated DNA+RT ref 51,55; read-out: Kd, reported values for DEC of TFV-terminated DNA+RT+dCTP; cited from earlier work
[5] = [α-32P]-dATP incorporation as marker
[6] = [α-32P]-dCTP incorporation as marker
[7] = TFV-terminated DNA 26/50-mer + HIV-1 RT, example experiment of Fig. 5
[8] = TFV-terminated DNA 26/50-mer + HIV-1 RT, example experiment of Fig. 5, read-out: Kd (curve fit of Fig. 5)
[9] = ligand added to TFV-terminated DNA D20/D36 + HIV-1 RT
[10] = ligand added to TFV-terminated DNA D20/D36 + HIV-1 RT, read-out: Kd
[11] = ligand added to TFV-terminated DNA D26/D50 + HIV-1 RT
[12] = ligand added to ddAMP-terminated DNA D20/D36 + HIV-1 RT
[13] = ligand added to ddAMP-terminated DNA D20/D36 + HIV-1 RT, read-out: Kd
[14] = ligand added to ddAMP-terminated DNA D26/D50 + HIV-1 RT
[15] = ligand added to ddCMP-terminated DNA D20/D36 + HIV-1 RT
[16] = ligand added to ddCMP-terminated DNA D27/D50 + HIV-1 RT

Structure (SMILES): O=C1Nc2ccc(Cl)cc2[C@@](C#CC2CC2)(C(F)(F)F)O1 [EFV, efavirenz]
- EC50 (HIV-1 strain xxLAI): 0.0056 µM
- steady-state plasma EFV concentration [1]: 5 µM

Structure (SMILES): Nc1nc(=O)n([C@@H]2CS[C@H](CO)O2)cc1F [FTC, emtricitabine]
- EC50 (HIV-1 strain xxLAI): 1.3 µM

Structure (SMILES): Nc1nc(=O)n([C@@H]2CS[C@H](COP(=O)(O)OP(=O)(O)OP(=O)(O)O)O2)cc1F [FTC-TP, FTC triphosphate]
- IC50 (HIV-1 RT; [5]): 5 ± 3.2 µM
- IC50 (HIV-1 RT; [6]): 2.4 ± 0.8 µM
- Bmax (curve fit of Fig. 5) [2, 7]: 50.4 ± 1.1%
- Kd [2, 8]: 52.6 ± 3.4 µM
- fold more efficient DEC formation than dCTP ([2]; TFV-terminated DNA+RT, two sequence contexts: equal to dCTP in one, this fold in the other): 3.9 fold and 4 fold
- fold less efficient DEC formation than with dCTP ([2]; ddAMP-terminated DNA+RT): 10 fold
- Bmax [2, 9]: 17.7 ± 3.9%
- Kd [2, 10]: 250 ± 11 µM
- Bmax [2, 11]: 50.0 ± 5.0%
- Bmax [2, 12]: 28.1 ± 4.7%
- Kd [2, 13]: 171 ± 28 µM
- Bmax [2, 14]: 60.2 ± 7.2%
- concentration in patients' peripheral blood mononuclear cells (PBMC) [3]: 5000 nM

Structure (SMILES): C[C@H](Cn1cnc2c(N)ncnc21)OCP(=O)(O)O [TFV, tenofovir]
- EC50 (HIV-1 strain xxLAI): 13 µM

Structure (SMILES): C[C@@H](Cn1cnc2c(N)ncnc21)OCP(=O)(O)OP(=O)(O)OP(=O)(O)O [TFV-DP, TFV diphosphate]
- IC50 (HIV-1 RT; [5]): 0.53 ± 0.08 µM
- IC50 (HIV-1 RT; [6]): 0.82 ± 0.23 µM
- Bmax [2, 15]: 15.3 ± 2.7%
- Bmax [2, 16]: 55 ± 2%
- concentration in patients' peripheral blood mononuclear cells (PBMC) [3]: 500 nM

Structure (SMILES): Nc1ncnc2c1ncn2[C@H]1C[C@H](O)[C@@H](COP(=O)(O)OP(=O)(O)OP(=O)(O)O)O1 [dATP]
- fold more efficient DEC formation than TFV-DP ([2]; ddCMP-terminated DNAs): 24- to 65 fold
- Bmax ([2]; ligand added to FTC-MP-terminated DNA D27/D50 + HIV-1 RT, ND = No DEC formation detected at 2 mM): 45 ± 14%
- Kd ([2]; ligand added to FTC-MP-terminated DNA D27/D50 + HIV-1 RT, ND = No DEC formation detected at 2 mM, read-out: Kd): 862 ± 229 µM
- Bmax [2, 15]: 38.0 ± 4.4%
- Bmax [2, 16]: 60 ± 3%

Structure (SMILES): Nc1ccn([C@H]2C[C@H](O)[C@@H](COP(=O)(O)OP(=O)(O)OP(=O)(O)O)O2)c(=O)n1 [dCTP]
- Bmax (curve fit of Fig. 5) [2, 7]: 49.2 ± 2.7%
- Kd [2, 8]: 185 ± 28 µM
- Bmax [2, 9]: 18.5 ± 6.7%
- Kd [2, 10]: 232 ± 12 µM
- Bmax [2, 11]: 50.0 ± 5.5%
- Bmax [2, 12]: 34.2 ± 4.6%
- Kd [2, 13]: 21.5 ± 9.8 µM
- Bmax [2, 14]: 55.8 ± 3.4%
- Kd [4]: 1 to 5 µM
